PubChem BioAssay (NCI)
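Interpolation was linear, between the two tested concentrations surrounding the appropriate level; five concentrations were tested over 48 hours in 96-well plates. At the TGI there is no net growth.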

Legend:
Assay in all cases: DTP human tumour cell line panel, 48 h
[1] = test system: A498 renal
[2] = test system: ACHN renal
[3] = test system: HCC-2998 colon
[4] = test system: K-562 leukemia
[5] = test system: NCI-H460 lung
[6] = test system: NCI/ADR-RES ovarian
[7] = test system: OVCAR-5 ovarian
[8] = test system: OVCAR-8 ovarian
[9] = test system: T-47D breast
[10] = test system: OVCAR-3 ovarian
[11] = test system: OVCAR-4 ovarian

## CCc1ccc2oc(-c3cc(O)c(-c4nc5cc(CC)ccc5o4)cc3O)nc2c1
[1]
  TGI: > 100 µM
[2]
  TGI: > 100 µM
[3]
  TGI: > 100 µM
[4]
  TGI: > 100 µM
[5]
  TGI: > 100 µM
[6]
  TGI: > 100 µM
[7]
  TGI: > 100 µM
[8]
  TGI: > 100 µM
[9]
  TGI: > 100 µM

## CCCSc1ccc2[nH]c(/N=C/c3ccco3)cc2c1
[1]
  TGI: > 100 µM
[2]
  TGI: > 100 µM
[6]
  TGI: > 100 µM
[10]
  TGI: > 100 µM
[11]
  TGI: > 100 µM
[7]
  TGI: > 100 µM
[8]
  TGI: > 100 µM
[9]
  TGI: > 100 µM

## Cc1cc(C)cc(Nc2cc(=O)[nH]c(=O)[nH]2)c1
[1]
  TGI: > 100 µM
[2]
  TGI: > 100 µM
[3]
  TGI: > 100 µM
[4]
  TGI: > 100 µM
[5]
  TGI: > 100 µM
[6]
  TGI: > 100 µM
[10]
  TGI: > 100 µM
[11]
  TGI: > 100 µM
[7]
  TGI: > 100 µM
[8]
  TGI: > 100 µM
[9]
  TGI: > 100 µM

## CCCCCC(=O)NC(=S)Nc1nn[nH]n1
[1]
  TGI: > 100 µM
[3]
  TGI: > 100 µM
[4]
  TGI: > 100 µM
[5]
  TGI: > 100 µM
[10]
  TGI: > 100 µM
[11]
  TGI: > 100 µM
[7]
  TGI: > 100 µM
[9]
  TGI: > 100 µM

## Cc1ccc(/C(O)=C/C(=O)C(=O)/C=C(\O)c2ccc(C)cc2C)c(C)c1
[1]
  TGI: 4.7 µM
[2]
  TGI: 3.65 µM
[3]
  TGI: 4.09 µM
[4]
  TGI: 9.58 µM
[5]
  TGI: 3.47 µM
[6]
  TGI: 4.12 µM
[10]
  TGI: 3.51 µM
[11]
  TGI: 9.04 µM
[7]
  TGI: 3.88 µM
[8]
  TGI: 7.63 µM
[9]
  TGI: 4.46 µM

## O=c1oc2ccccc2c(Nc2ccc3c(c2)Oc2ccccc2O3)c1[N+](=O)[O-]
[1]
  TGI: 59 µM
[2]
  TGI: 32.7 µM
[3]
  TGI: 62.4 µM
[4]
  TGI: > 100 µM
[5]
  TGI: > 100 µM
[6]
  TGI: 69.4 µM
[10]
  TGI: 64.2 µM
[11]
  TGI: 67 µM
[7]
  TGI: > 100 µM
[8]
  TGI: 37.6 µM
[9]
  TGI: 79.1 µM

## Cc1cn(C(Cc2ccccc2)OCCO)c(=O)[nH]c1=O (centres undefined)
[1]
  TGI: > 100 µM
[2]
  TGI: > 100 µM
[3]
  TGI: > 100 µM
[4]
  TGI: > 100 µM
[5]
  TGI: > 100 µM
[6]
  TGI: > 100 µM
[10]
  TGI: > 100 µM
[11]
  TGI: > 100 µM
[7]
  TGI: > 100 µM
[8]
  TGI: > 100 µM
[9]
  TGI: > 100 µM

## C1CNCCNCCN1
[1]
  TGI: > 100 µM
[2]
  TGI: > 100 µM
[3]
  TGI: > 100 µM
[4]
  TGI: > 100 µM
[5]
  TGI: > 100 µM
[6]
  TGI: > 100 µM
[10]
  TGI: > 100 µM
[11]
  TGI: > 100 µM
[7]
  TGI: > 100 µM
[8]
  TGI: > 100 µM
[9]
  TGI: > 100 µM

## O=c1c2ncn(COCCCl)c2n(-c2ccccc2)c(=S)n1-c1ccccc1
[1]
  TGI: > 100 µM
[2]
  TGI: > 100 µM
[3]
  TGI: > 100 µM
[4]
  TGI: > 100 µM
[5]
  TGI: > 100 µM
[6]
  TGI: > 100 µM
[10]
  TGI: > 100 µM
[11]
  TGI: > 100 µM
[7]
  TGI: > 100 µM
[8]
  TGI: > 100 µM
[9]
  TGI: > 100 µM

## CNC(=O)Oc1ccc(-c2cn3cc(OC(=O)NC)ccc3n2)cc1
[1]
  TGI: > 100 µM
[2]
  TGI: > 100 µM
[3]
  TGI: > 100 µM
[4]
  TGI: > 100 µM
[5]
  TGI: > 100 µM
[6]
  TGI: > 100 µM
[10]
  TGI: > 100 µM
[11]
  TGI: > 100 µM
[7]
  TGI: > 100 µM
[8]
  TGI: > 100 µM
[9]
  TGI: > 100 µM

## CC1=NN2C(=N)/C(=C/c3ccco3)C(=O)N=C2S1
[1]
  TGI: > 100 µM
[2]
  TGI: > 100 µM
[3]
  TGI: > 100 µM
[4]
  TGI: > 100 µM
[5]
  TGI: > 100 µM
[6]
  TGI: > 100 µM
[10]
  TGI: > 100 µM
[11]
  TGI: > 100 µM
[7]
  TGI: > 100 µM
[8]
  TGI: > 100 µM
[9]
  TGI: > 100 µM

## OCC1OC(n2cnc3c(Cl)nc(Nc4ccccc4)nc32)CC1O (centres undefined)
[1]
  TGI: > 100 µM
[2]
  TGI: 32.1 µM
[3]
  TGI: 44.7 µM
[4]
  TGI: > 100 µM
[5]
  TGI: > 100 µM
[6]
  TGI: > 100 µM
[10]
  TGI: > 100 µM
[11]
  TGI: > 100 µM
[7]
  TGI: > 100 µM
[8]
  TGI: > 100 µM
[9]
  TGI: > 100 µM

## O=C(O)c1ccc(S(=O)(=O)c2ccccc2[N+](=O)[O-])cc1
[1]
  TGI: > 10 µM
[2]
  TGI: > 10 µM
[3]
  TGI: > 10 µM
[4]
  TGI: > 10 µM
[5]
  TGI: > 10 µM
[6]
  TGI: > 10 µM
[10]
  TGI: > 10 µM
[11]
  TGI: > 10 µM
[7]
  TGI: > 10 µM
[8]
  TGI: > 10 µM
[9]
  TGI: > 10 µM

## NP(=O)(OCC1=CC(=O)c2ccccc2C1=O)N(CCBr)CCBr (centres undefined)
[1]
  TGI: 39.3 µM
[2]
  TGI: 15.7 µM
[3]
  TGI: 34.3 µM
[4]
  TGI: > 100 µM
[5]
  TGI: 16 µM
[6]
  TGI: > 73.4 µM
[10]
  TGI: > 25.6 µM
[11]
  TGI: 31.6 µM
[7]
  TGI: 45.1 µM
[8]
  TGI: 37.2 µM
[9]
  TGI: 29.7 µM

## C=C1C(=O)CC2C(=O)C(C)(O)CC/C=C(\C)C(=O)CC12 (centres undefined)
[1]
  TGI: > 100 µM
[2]
  TGI: 27.3 µM
[3]
  TGI: > 100 µM
[4]
  TGI: > 44.1 µM
[5]
  TGI: > 100 µM
[6]
  TGI: > 100 µM
[10]
  TGI: 59 µM
[11]
  TGI: > 58.2 µM
[7]
  TGI: 47.2 µM
[8]
  TGI: > 63.6 µM

## COC(=O)C1=C2SCc3cccc(c3)CSC3=C(C(=O)OC)SC(=C(S2)S1)S3
[1]
  TGI: > 100 µM
[2]
  TGI: > 100 µM
[3]
  TGI: > 100 µM
[4]
  TGI: > 100 µM
[5]
  TGI: > 100 µM
[10]
  TGI: > 100 µM
[11]
  TGI: > 100 µM
[9]
  TGI: > 100 µM

## CC1=NN(c2ccc(S(=O)(=O)O)cc2)C2(C1)SCC(=O)N2c1nc2ccccc2s1 (centres undefined)
[1]
  TGI: > 100 µM
[2]
  TGI: > 100 µM
[3]
  TGI: > 100 µM
[4]
  TGI: > 100 µM
[5]
  TGI: > 100 µM
[6]
  TGI: > 100 µM
[10]
  TGI: > 100 µM
[11]
  TGI: > 100 µM
[7]
  TGI: > 100 µM
[8]
  TGI: > 100 µM
[9]
  TGI: > 100 µM

## CN(C)c1ccc(C2SCC(=O)N2NS(=O)(=O)c2cccc(C(=O)O)c2)cc1 (centres undefined)
[2]
  TGI: > 100 µM
[3]
  TGI: > 100 µM
[4]
  TGI: > 100 µM
[5]
  TGI: > 100 µM
[10]
  TGI: > 100 µM
[7]
  TGI: > 100 µM
[8]
  TGI: 32.6 µM
[9]
  TGI: > 100 µM

## CC1CCOc2ccc(cc2)C=Nc2ccc(cc2)CCc2ccc(cc2)N=Cc2ccc(cc2)OCC1 (centres undefined)
[1]
  TGI: > 100 µM
[2]
  TGI: > 100 µM
[3]
  TGI: > 100 µM
[4]
  TGI: > 100 µM
[5]
  TGI: > 100 µM
[6]
  TGI: > 100 µM
[10]
  TGI: > 100 µM
[11]
  TGI: > 100 µM
[7]
  TGI: > 100 µM
[8]
  TGI: > 100 µM

## O=c1nc2c(c(-c3ccccc3Cl)[nH]1)COC/C2=C\c1ccccc1Cl
[1]
  TGI: > 100 µM
[2]
  TGI: > 100 µM
[3]
  TGI: > 100 µM
[5]
  TGI: > 100 µM
[6]
  TGI: > 100 µM
[10]
  TGI: > 100 µM
[11]
  TGI: > 100 µM
[7]
  TGI: > 100 µM
[8]
  TGI: > 100 µM
[9]
  TGI: > 100 µM

## Cc1ccc(-c2cc(N)n(-c3nc4c(c(=O)n(C)c(=O)n4C)n3C)n2)cc1
[1]
  TGI: > 100 µM
[2]
  TGI: > 100 µM
[3]
  TGI: > 100 µM
[4]
  TGI: > 100 µM
[5]
  TGI: > 100 µM
[6]
  TGI: > 100 µM
[10]
  TGI: > 100 µM
[11]
  TGI: > 100 µM
[7]
  TGI: > 100 µM
[8]
  TGI: > 100 µM
[9]
  TGI: > 100 µM
